In paper PMC9310948 (Chemcatchem, 2022):

Biological target: H. orenii β-glucosidase (GH1) (Halothermothrix orenii, UniProt B8CYA8)
Experiment: p-nitrophenol release, absorbance […] nm
Assay type: biochemical
Conditions: 50 mM HEPES pH 7.4, 10 mM substrate

H. orenii β-glucosidase (GH1), sequence (B8CYA8 1-451): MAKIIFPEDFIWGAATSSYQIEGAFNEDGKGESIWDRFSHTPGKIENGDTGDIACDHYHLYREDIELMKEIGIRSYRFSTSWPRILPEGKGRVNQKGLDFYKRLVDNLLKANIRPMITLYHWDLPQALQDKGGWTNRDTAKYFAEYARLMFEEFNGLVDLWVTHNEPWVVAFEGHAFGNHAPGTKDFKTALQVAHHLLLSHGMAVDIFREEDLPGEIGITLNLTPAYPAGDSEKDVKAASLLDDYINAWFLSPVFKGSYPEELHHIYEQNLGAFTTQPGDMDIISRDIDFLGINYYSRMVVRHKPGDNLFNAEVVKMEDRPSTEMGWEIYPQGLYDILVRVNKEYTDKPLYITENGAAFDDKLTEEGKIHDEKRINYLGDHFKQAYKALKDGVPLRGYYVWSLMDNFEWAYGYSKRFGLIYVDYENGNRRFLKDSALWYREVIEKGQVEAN

For `O=[N+]([O-])c1ccc(O[C@@H]2O[C@H](CO)[C@@H](O)[C@H](O)[C@H]2O)cc1` [p-nitrophenyl glucoside], the “p-nitrophenol release, absorbance 420 nm” value was “monitoring the enzymatic rate of hydrolysis of p‐nitrophenyl glucoside by a UV‐Vis assay”.
